Source: US8765959B2, “Piperidine derivatives” (Boehringer Ingelheim International GmbH, priority 2011, dated 2014)
Like-named read-outs stand apart in the source and are kept apart here.

Biological target: T1, human ACC2 (Homo sapiens, UniProt O00763)
T1 construct: made in house; host or cells: insect cells (baculoviral expression system)
Assay: ACC2 assay, spectrophotometric 384 well assay (NADH-linked, coupled lactate dehydrogenase/pyruvate kinase)
Type: biochemical
Method: Spectrophotometric 384 Well Assay
Malonyl CoA formation by acetyl CoA carboxylases is stoichometrically linked to the consumption of ATP. ACC2 activity is measured in a NADH-linked kinetic method measuring ADP generated during the ACC reaction using a coupled lactate dehydrogenase/pyruvate kinase reaction.
For biological testing, a human ACC2 construct which lacks the 128 amino acids at the N-terminus for increased solubility (nt 385-6966 in Genbank entry AJ575592) is cloned. The protein is then expressed in insect cells using a baculoviral expression system. Protein purification is performed by anion exchange.
All compounds are dissolved in dimethyl sulfoxide (DMSO) to a concentration of 10 mM.
Assay reactions are then carried out in 384-well plates, with hACC2 in an appropriate dilution and at final assay concentrations (f.c.) of 100 mM Tris (pH 7.5), 10 mM trisodium citrate, 25 mM KHCO3, 10 mM MgCl2, 0.5 mg/ml BSA, 3.75 mM reduced L-glutathione, 15 U/ml lactate dehydrogenase, 0.5 mM phosphoenolpyruvate, 15 U/ml pyruvate kinase, compounds at different concentrations at final DMSO concentrations of 1%.
The enzymatic reaction is then started by addition of a mixture of NADH, acetyl Coenzyme A (both 200 μM f.c.) and ATP (500 uM f.c.). The decrease of the optical density (slope S) is then determined at 25° C. at a wavelength of 340 nm over 15 minutes in a spectrophotometric reader.
Each assay microtiter plate contains wells with vehicle instead of compound as controls for the non-inhibited enzyme (100% CTL; ‘HIGH’) and wells without acetyl-CoA as controls for non-specific NADH degradation (0% CTL; ‘LOW’).
The slope S is used for calculation of % CTL=(S(compound)−S(‘LOW’))/(S(‘HIGH’)−S(‘LOW’))*100. Compounds will give values between 100% CTL (no inhibition) and 0% CTL (complete inhibition).
For IC50 value determination, the sample slope in the presence of the test compound after subtraction of the low controls (S(compound)−S(‘LOW’)) are used.
An IC50 value is derived from the compound slopes at different dosages after subtraction of the low controls (S(compound)−S(‘LOW’)) by non-linear regression curve fitting (equation y=(A+((B−A)/(1+((C/x)^D))))).

[1] = ACC2 assay, human ACC2 construct lacking 128 N-terminal amino acids, 25° C., 340 nm, 15 minutes, read-out: IC50

T1 sequence (O00763 129-2458 limits assumed): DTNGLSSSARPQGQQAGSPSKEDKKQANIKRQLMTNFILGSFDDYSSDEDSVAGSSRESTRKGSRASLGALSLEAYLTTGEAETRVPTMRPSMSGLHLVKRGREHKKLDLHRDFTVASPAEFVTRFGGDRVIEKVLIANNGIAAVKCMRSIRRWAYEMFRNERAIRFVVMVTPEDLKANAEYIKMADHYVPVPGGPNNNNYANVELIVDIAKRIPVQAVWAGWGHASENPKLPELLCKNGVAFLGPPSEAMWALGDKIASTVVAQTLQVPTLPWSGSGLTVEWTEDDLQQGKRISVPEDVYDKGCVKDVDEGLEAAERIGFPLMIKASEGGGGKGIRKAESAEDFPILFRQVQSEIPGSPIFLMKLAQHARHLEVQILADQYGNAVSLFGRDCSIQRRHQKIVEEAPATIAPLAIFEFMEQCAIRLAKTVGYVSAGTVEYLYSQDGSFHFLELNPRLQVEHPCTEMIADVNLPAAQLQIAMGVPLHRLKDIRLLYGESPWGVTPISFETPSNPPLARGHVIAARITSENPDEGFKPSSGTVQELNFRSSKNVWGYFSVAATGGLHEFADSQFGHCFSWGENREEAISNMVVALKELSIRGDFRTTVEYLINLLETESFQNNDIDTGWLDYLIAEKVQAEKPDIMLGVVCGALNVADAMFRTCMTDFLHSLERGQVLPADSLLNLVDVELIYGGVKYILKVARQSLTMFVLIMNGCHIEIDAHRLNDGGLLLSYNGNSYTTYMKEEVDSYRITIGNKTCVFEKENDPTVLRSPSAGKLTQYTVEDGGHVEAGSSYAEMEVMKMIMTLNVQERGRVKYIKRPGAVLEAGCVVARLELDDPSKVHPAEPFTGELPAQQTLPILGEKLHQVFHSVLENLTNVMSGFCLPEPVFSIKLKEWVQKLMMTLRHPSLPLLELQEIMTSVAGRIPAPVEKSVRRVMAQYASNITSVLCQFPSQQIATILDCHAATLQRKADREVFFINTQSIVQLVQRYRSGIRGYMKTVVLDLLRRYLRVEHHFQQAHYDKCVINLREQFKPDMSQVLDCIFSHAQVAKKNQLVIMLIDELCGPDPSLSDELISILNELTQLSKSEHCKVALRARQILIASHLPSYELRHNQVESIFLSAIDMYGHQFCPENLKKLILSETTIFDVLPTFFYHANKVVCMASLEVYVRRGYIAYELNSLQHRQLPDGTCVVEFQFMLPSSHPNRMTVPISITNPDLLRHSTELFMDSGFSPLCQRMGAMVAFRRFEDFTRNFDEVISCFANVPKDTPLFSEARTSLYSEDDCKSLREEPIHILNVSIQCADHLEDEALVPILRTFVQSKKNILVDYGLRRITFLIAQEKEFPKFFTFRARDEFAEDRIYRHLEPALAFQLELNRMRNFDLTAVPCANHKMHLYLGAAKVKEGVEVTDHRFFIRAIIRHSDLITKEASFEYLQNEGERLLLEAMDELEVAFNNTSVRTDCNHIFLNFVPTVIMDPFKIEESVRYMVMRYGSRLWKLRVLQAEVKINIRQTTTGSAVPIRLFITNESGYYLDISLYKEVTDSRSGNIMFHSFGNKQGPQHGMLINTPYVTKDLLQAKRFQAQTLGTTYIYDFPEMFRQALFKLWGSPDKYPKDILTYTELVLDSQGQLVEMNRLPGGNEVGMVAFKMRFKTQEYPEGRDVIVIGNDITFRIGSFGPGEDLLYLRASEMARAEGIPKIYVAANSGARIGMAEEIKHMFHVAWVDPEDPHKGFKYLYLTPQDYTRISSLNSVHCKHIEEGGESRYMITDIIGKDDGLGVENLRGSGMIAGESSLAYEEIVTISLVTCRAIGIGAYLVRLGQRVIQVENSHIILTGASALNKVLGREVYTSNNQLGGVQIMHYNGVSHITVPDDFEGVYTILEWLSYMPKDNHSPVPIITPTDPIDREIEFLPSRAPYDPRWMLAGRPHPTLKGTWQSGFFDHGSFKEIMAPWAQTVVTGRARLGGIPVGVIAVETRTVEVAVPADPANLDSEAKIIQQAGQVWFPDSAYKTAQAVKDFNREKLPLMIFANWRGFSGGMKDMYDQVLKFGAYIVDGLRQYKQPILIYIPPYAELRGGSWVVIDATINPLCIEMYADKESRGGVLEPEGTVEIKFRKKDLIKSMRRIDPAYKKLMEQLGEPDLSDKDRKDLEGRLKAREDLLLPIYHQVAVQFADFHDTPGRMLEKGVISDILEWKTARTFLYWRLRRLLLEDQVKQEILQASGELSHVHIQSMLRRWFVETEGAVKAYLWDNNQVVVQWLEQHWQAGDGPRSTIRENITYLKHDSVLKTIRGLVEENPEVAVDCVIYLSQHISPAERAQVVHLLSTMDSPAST

Structure (SMILES)	IC50 [1]	IC50
CC(=O)NC(C)c1ccc(N2CCC(c3ccc(OCC4CC4)cc3F)CC2)cc1F (stereo not shown) [Example 1.48]	460 nM	
C[C@H](NC(=O)C1CC1)c1ccc(N2CCC(c3ccc(OC4CCC4)cc3)CC2)cc1 [Example 1.16]	1240 nM	
CCOc1cccc(C2CCN(c3ccc([C@H](C)NC(C)=O)cc3)CC2)c1 [Example 1.6]	1120 nM	
CC(=O)N[C@@H](C)c1ccc(N2CCC(c3ccc(OCC4CC4(F)F)cc3)CC2)cc1 (stereo partly shown) [Example 1.7]	90 nM	
CCOc1ccc(C2CCN(c3ccc([C@H](C)NC(C)=O)cc3)CC2)cc1 [Example 1.2]	150 nM	
COc1ccc(C2CCN(c3ccc(CC(C)NC(C)=O)cc3)CC2)cc1 (stereo not shown) [Example 1.61]	4470 nM	
CCCOc1ccc(C2CCN(c3ccc([C@H](C)NC(=O)C4CC4)cc3)CC2)cc1 [Example 1.21]	640 nM	
CC(=O)N[C@@H](C)c1ccc(N2CCC(c3cccc(OC4CCC4)c3)CC2)cc1 [Example 1.14]	450 nM	
CCOc1ccc(C2CCN(c3ccc([C@H](C)NC(=O)N(CC)CC)cc3)CC2)cc1 [Example 4.4]	3690 nM	
C[C@H](NC(=O)N(C)C)c1ccc(N2CCC(c3ccc(OCC4CC4)cc3)CC2)cc1 [Example 1.24]	540 nM	
CCOc1ccc(C2CCN(c3ccc([C@H](C)NC(=O)N(C)c4cccnc4)cc3)CC2)cc1 [Example 4.2]	1160 nM	
C[C@H](NC(=O)C1CC1)c1ccc(N2CCC(c3ccc(OCC4CC4)cc3)CC2)cc1 [Example 1.15]	1850 nM	
CCOc1ccc(C2CCN(c3ccc([C@H](C)NC(=O)C(C)F)cc3)CC2)cc1 (stereo partly shown) [Example 3.3]	760 nM	
CCOc1ccc(C2CCN(c3ccc([C@H](C)NC(=O)CC)cc3)CC2)cc1 [Example 2.4]	710 nM	
CCOc1ccc(C2CCN(c3ccc([C@H](C)NC(=O)CSC)cc3)CC2)cc1 [Example 2.3]	1210 nM	
CC(C)Oc1ccc(C2CCN(c3ccc([C@H](C)NC(=O)C4CC4)cc3)CC2)cc1 [Example 1.10]	800 nM	
COc1cc(C(C)NC(C)=O)ccc1N1CCC(c2ccc(OC3CCC3)cc2)CC1 (stereo not shown) [Example 1.51]	4410 nM	
CCOc1ccc(C2CCN(c3ccc([C@H](C)NC(=O)OC)cc3)CC2)cc1 [Example 5.1, (S)-(1-{4-[4-(4-Ethoxy-phenyl)-piperidin-1-yl]-phenyl}-ethyl)-carbamic acid methyl ester]	2090 nM	
CC(=O)NC(C)c1ccc(N2CCC(c3cccc(OC(C)C)c3)CC2)cc1F (stereo not shown) [Example 1.42]	1260 nM	
CCOc1ccc(C2CCN(c3ccc([C@H](C)NC(=O)C(F)F)cc3)CC2)cc1 [Example 3.2]	380 nM	
CCCOc1cccc(C2CCN(c3ccc([C@H](C)NC(C)=O)cc3)CC2)c1 [Example 1.20]	660 nM	

Structure (SMILES)	IC50 [1]	IC50
CCOc1ccc(C2CCN(c3ccc([C@H](C)NC(=O)C(F)(F)F)cc3)CC2)cc1 [Example 2.6]	110 nM	
CCOc1ccc(C2CCN(c3ccc([C@H](C)NC(=O)c4csc(NC(C)=O)n4)cc3)CC2)cc1 [Example 3.7]	1480 nM	
CCCOc1ccc(C2CCN(c3ccc(C(C)NC(C)=O)cc3F)CC2)cc1 (stereo not shown) [Example 1.32]	230 nM	
CCOc1ccc(C2CCN(c3ccc([C@H](C)NC(C)=O)cc3)CC2)c(OC)c1 [Example 1.11]	440 nM	
CCOc1ccc(C2CCN(c3ccc([C@H](C)NC(=O)N(C)C)cc3)CC2)cc1 [Example 1.17]	820 nM	
CC(=O)NC(C)c1ccc(N2CCC(c3ccc(OC(C)C)cc3)CC2)c(F)c1 (stereo not shown) [Example 1.33]	460 nM	
CCOc1ccc(C2CCN(c3ccc(C(C)NC(C)=O)c(F)c3)CC2)cc1 (stereo not shown) [Example 1.45]	350 nM	
CCOc1ccc(C2CCN(c3ccc(CCC(C)NC(C)=O)cc3)CC2)cc1 (stereo not shown) [Example 1.70]	8470 nM	
CCOc1ccc(C2CCN(c3ccc([C@H](C)NC(=O)COC)cc3)CC2)cc1 [Example 2.5]	6910 nM	
CC(=O)N[C@@H](C)c1ccc(N2CCC(c3ccc(OC4CCC4)cc3)CC2)cc1 [Example 1.4]	230 nM	
CCOc1ccc(C2CCN(c3ccc([C@H](C)NC(=O)C4(C#N)CC4)cc3)CC2)cc1 [Example 2.1, (S)-1-Cyano-cyclopropanecarboxylic acid (1-{4-[4-(4-ethoxy-phenyl)-piperidin-1-yl]-phenyl}-ethyl)-amide]	4150 nM	
CCOc1ccc(C2CCN(c3ccc([C@H](C)N(C)C(C)=O)cc3)CC2)cc1 [Example 6.1, (S)—N-(1-{4-[4-(4-Ethoxy-phenyl)-piperidin-1-yl]-phenyl}-ethyl)-N-methyl-acetamide]	3430 nM	
COc1ccc(C2CCN(c3ccc([C@H](C)NC(C)=O)cc3)CC2)cc1 [Example 1.27]	2160 nM	
CCOc1ccc(C2CCN(c3ccc([C@H](C)NC(C)=O)cc3)CC2)cn1 [Example 1.12]	3170 nM	
CCOc1cccc(C2CCN(c3ccc(C(C)NC(C)=O)c(F)c3)CC2)c1 (stereo not shown) [Example 1.41]	1270 nM	
CCOc1ccc(C2CCN(c3ccc([C@H](C)NC(=O)N4CCOCC4)cc3)CC2)cc1 [Example 4.3]	2360 nM	
CCCOc1ccc(C2CCN(c3ccc(C(C)NC(C)=O)cc3OC)CC2)cc1 (stereo not shown) [Example 1.52]	4230 nM	
CCOc1ccc(C2CCN(c3ccc([C@H](C)NC(=O)CF)cc3)CC2)cc1 [Example 3.8]		440 nM
CCOc1ccc(C2CCN(c3ccc([C@H](C)NC(=O)Cc4cc[nH]c4)cc3)CC2)cc1 [Example 3.4]	4880 nM	
CC(=O)NC(C)c1ccc(N2CCC(c3cccc(OC4CCC4)c3)CC2)cc1F (stereo not shown) [Example 1.47]	430 nM	
CCCOc1ccc(C2CCN(c3ccc([C@H](C)NC(C)=O)cc3)CC2)c(C)c1 [Example 1.3]	50 nM	

Structure (SMILES)	IC50 [1]	IC50
CC(=O)N[C@@H](C)c1ccc(N2CCC(c3cccc(OC(C)C)c3)CC2)cc1 [Example 1.25]	370 nM	
CCOc1ccc(C2CCN(c3ccc([C@H](C)NC(=O)c4coc(NC(C)=O)n4)cc3)CC2)cc1 [Example 3.1, (S)-2-Acetylamino-oxazole-4-carboxylic acid (1-{4-[4-(4-ethoxy-phenyl)-piperidin-1-yl]-phenyl}-ethyl)-amide]	2770 nM	
CCCOc1ccc(C2CCN(c3ccc(C(C)NC(C)=O)c(F)c3)CC2)c(C)c1 (stereo not shown) [Example 1.44]	160 nM	
CCOc1ccc(C2CCN(c3ccc([C@H](C)NC(=O)CO)cc3)CC2)cc1 [Example 3.9]	4980 nM	
CCOc1ccc(C2CCN(c3ccc([C@H](C)NC(=O)C4(C)CC4)cc3)CC2)cc1 [Example 2.7]	520 nM	
CCOc1cc(C2CCN(c3ccc([C@H](C)NC(C)=O)cc3)CC2)ccn1 [Example 1.19]	820 nM	
CC(=O)NC(C)c1ccc(N2CCC(c3ccc(OCC4CC4)cc3F)CC2)c(F)c1 (stereo not shown) [Example 1.31]	150 nM	
CCCOc1ccc(C2CCN(c3ccc([C@H](C)NC(=O)N(C)C)cc3)CC2)cc1 [Example 1.26]	340 nM	
CCOc1ccc(C2CCN(c3ccc([C@H](C)NC(=O)c4cncs4)cc3)CC2)cc1 [Example 2.2]	690 nM	
CCOc1ccc(C2CCN(c3ccc([C@H](C)NC(=O)C4CC4)cc3)CC2)cc1 [Example 1.8]	680 nM	
CC(=O)NC(C)c1ccc(N2CCC(c3ccc(OC(C)C)cc3)CC2)cc1F (stereo not shown) [Example 1.46]	370 nM	
C[C@H](NC(=O)N(C)C)c1ccc(N2CCC(c3ccc(OC4CCC4)cc3)CC2)cc1 [Example 1.22]	250 nM	
CC(C)Oc1ccc(C2CCN(c3ccc([C@H](C)NC(=O)N(C)C)cc3)CC2)cc1 [Example 1.9]	610 nM	
CCOc1ccc(C2CCN(c3ccc([C@H](C)NC(=O)c4cncc(NC(C)=O)c4)cc3)CC2)cc1 [Example 3.5]	4530 nM	
CCOc1ccc(C2CCN(c3ccc([C@H](C)NC(=O)c4sc(NC(C)=O)nc4C)cc3)CC2)cc1 [Example 3.6]	200 nM	
CCOc1ccc(C2CCN(c3ccc([C@H](C)NC(=O)N(C)CC)cc3)CC2)cc1 [Example 4.1, (S)-3-(1-{4-[4-(4-Ethoxy-phenyl)-piperidin-1-yl]-phenyl}-ethyl)-1-ethyl-1-methyl-urea]	1980 nM	
CC(=O)N[C@@H](C)c1ccc(N2CCC(c3cccc(OCC4CC4)c3)CC2)cc1 [Example 1.5]	880 nM	
CCCOc1ccc(C2CCN(c3ccc([C@H](C)NC(C)=O)cc3)CC2)cc1 [Example 1.1, (S)—N-(1-{4-[4-(4-Propoxy-phenyl)-piperidin-1-yl]-phenyl}-ethyl)-acetamide]	70 nM	
CCOc1ccc(C2CCN(c3ccc(CC(C)NC(C)=O)cc3)CC2)cc1 (stereo not shown) [Example 1.60]	1220 nM	
